Consider eleven molecules from ChEMBL document CHEMBL1140773, “Discovery of amide and heteroaryl isosteres as carbamate replacements in a series of orally active gamma-secretase inhibitors” (Bioorg Med Chem Lett, 2008).

For orientation: AUC(0-t) means exposure summed from dosing to a finite time, without extrapolation to infinity. A lower AUC(0-t) goes with low exposure.

The nature of the data set: in vivo. Particulars: rat, plasma, po, 10 mg/kg.

Molecule `CC[C@@H]1CCC[C@H](C2(Cc3nc(CN(C)C(C)(C)CO)no3)CC2)N1S(=O)(=O)c1ccc(Cl)cc1` (racemic) displayed an AUC(0-t) at 6 h of 973 ng·h/mL.

For `CC[C@@H]1CCC[C@H](C2(CC(=O)N3CCC(N4CCCCC4)CC3)CC2)N1S(=O)(=O)c1ccc(Cl)cc1` (racemic), the AUC(0-t) at 6 h came to 93 ng·h/mL.

For `CC[C@@H]1CCC[C@H](C2(CC(=O)N3CC4CCC(C3)N4CCO)CC2)N1S(=O)(=O)c1ccc(Cl)cc1` (mixture of isomers), the AUC(0-t) at 6 h amounted to 3220 ng·h/mL.

`O=C(CC1([C@H]2CCC[C@@H](C3CC3)N2S(=O)(=O)c2ccc(Cl)cc2)CC1)N1CCN2CCCC[C@H]2C1` (racemic) registered an exposure AUC(0-t) at 6 h of 673 ng·h/mL.

Consider `CN(Cc1noc(CC2([C@H]3CCC[C@@H](C4CC4)N3S(=O)(=O)c3ccc(Cl)cc3)CC2)n1)C(C)(C)CO` (racemic), for which the AUC(0-t) at 6 h is 143 ng·h/mL.

Take `CC[C@@H]1CCC[C@H](C2(CC(=O)N3CCN4CCCC[C@H]4C3)CC2)N1S(=O)(=O)c1ccc(Cl)cc1` (racemic): the AUC(0-t) at 6 h was 419 ng·h/mL.

The molecule `CC[C@@H]1CCC[C@H](C2(CC(=O)N3CC4CCC(C3)N4C)CC2)N1S(=O)(=O)c1ccc(Cl)cc1` (mixture of isomers) gave an AUC(0-t) at 6 h of 2650 ng·h/mL.

For the molecule `CC[C@@H]1CCC[C@H](C2(Cc3nc(CN4CCCC4)no3)CC2)N1S(=O)(=O)c1ccc(Cl)cc1` (racemic), the AUC(0-t) at 6 h came to 26 ng·h/mL.

`CC(C)(CO)N1CCN(C(=O)CC2([C@H]3CCC[C@@H](C4CC4)N3S(=O)(=O)c3ccc(Cl)cc3)CC2)CC1` (racemic) displayed an AUC(0-t) at 6 h of 1350 ng·h/mL.

`CC[C@@H]1CCC[C@H](C2(CC(=O)N3CCN(C(C)(C)CO)CC3)CC2)N1S(=O)(=O)c1ccc(Cl)cc1` (racemic) yielded an AUC(0-t) at 6 h of 1620 ng·h/mL.

`O=C(CC1([C@H]2CCC[C@@H](C3CC3)N2S(=O)(=O)c2ccc(Cl)cc2)CC1)N1CC2CCC(C1)N2CCO` (mixture of isomers) registered an AUC(0-t) at 6 h of 5810 ng·h/mL.
